Several values for one entry are separate records, joined by “and”; a condition that tells them apart may be missing. Equal values may be shown once. Toxic doses and inconclusive results are not listed. Cut-off read from the data, not from the text of the source: active = T/C of 150% or more; inactive = T/C below 125%.
Test system: L1210 leukemia ip in BDF1 mice, survival T/C
Experiment: NCI In Vivo Anticancer Drug Screen. Data for tumor model L1210 Leukemia (intraperitoneal) in B6D2F1 (BDF1) mice
Details: endpoint: mean survival time, higher = longer survival
Outline: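 Value reflects the ratio of survival in compound-treated mice to survival in vehicle-treated controls, with both groups carrying the same transplanted tumor.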

[1] = dose: 50.0 mg/kg/injection, schedule: Q01DX009 (ip), vehicle: saline with Tween-80
[2] = dose: 100.0 mg/kg/injection, schedule: Q01DX009 (ip), vehicle: saline with Tween-80
[3] = dose: 100.0 mg/kg/injection, schedule: Q04DX003 (ip), vehicle: saline with Tween-80
[4] = dose: 200.0 mg/kg/injection, schedule: Q01DX009 (ip), vehicle: saline with Tween-80
[5] = dose: 200.0 mg/kg/injection, schedule: Q04DX003 (ip), vehicle: saline with Tween-80
[6] = dose: 400.0 mg/kg/injection, schedule: Q04DX003 (ip), vehicle: saline with Tween-80
[7] = dose: 100.0 mg/kg/injection, schedule: Q04DX003 (ip), vehicle: Klucel (hydroxypropylcellulose) (HPC)
[8] = dose: 200.0 mg/kg/injection, schedule: Q01DX001 (ip), vehicle: carboxymethylcellulose (CMC)
[9] = dose: 400.0 mg/kg/injection, schedule: Q01DX001 (ip), vehicle: carboxymethylcellulose (CMC)
[10] = dose: 100.0 mg/kg/injection, schedule: Q04DX002 (ip), vehicle: Klucel (hydroxypropylcellulose) (HPC)
[11] = dose: 200.0 mg/kg/injection, schedule: Q04DX002 (ip), vehicle: Klucel (hydroxypropylcellulose) (HPC)
[12] = dose: 400.0 mg/kg/injection, schedule: Q04DX002 (ip), vehicle: Klucel (hydroxypropylcellulose) (HPC)
[13] = dose: 100.0 mg/kg/injection, schedule: Q01DX001 (ip), vehicle: saline
[14] = dose: 200.0 mg/kg/injection, schedule: Q01DX001 (ip), vehicle: saline
[15] = dose: 400.0 mg/kg/injection, schedule: Q01DX001 (ip), vehicle: saline

Measured: T/C

CC1CC(C)(C)N=C(CCC2CCCC2=O)O1 (stereo not given)
inactive: [1] 104 % of control | dose: 50.0 mg/kg/injection, schedule: Q04DX003 (ip), vehicle: saline with Tween-80 95 % of control | [2] 98 % of control | [3] 91 % of control | [4] 100 % of control | [5] 96 % of control | dose: 400.0 mg/kg/injection, schedule: Q01DX009 (ip), vehicle: saline with Tween-80 100 % of control | [6] 91 % of control

COc1c(CO)cc(C)cc1CO
inactive: dose: 87.5 mg/kg/injection, schedule: Q04DX003 (ip), vehicle: saline with Tween-80 101 % of control | dose: 175.0 mg/kg/injection, schedule: Q04DX003 (ip), vehicle: saline with Tween-80 124 % of control | dose: 350.0 mg/kg/injection, schedule: Q04DX003 (ip), vehicle: saline with Tween-80 101 % of control

CCOC(=O)COc1cc(Cl)c(Cl)cc1Cl
inactive: dose: 75.0 mg/kg/injection, schedule: Q01DX009 (ip), vehicle: gum acacia 110 % of control | dose: 100.0 mg/kg/injection, schedule: Q04DX002 (ip), vehicle: gum acacia 100 % of control | dose: 200.0 mg/kg/injection, schedule: Q04DX002 (ip), vehicle: gum acacia 118 % of control | dose: 400.0 mg/kg/injection, schedule: Q04DX002 (ip), vehicle: gum acacia 92 % of control

Brc1cccc([Si](c2ccccc2)(c2ccccc2)c2cccc(Br)c2)c1
inactive: [3] 98 % of control | [5] 98 % of control | [6] 95 % of control

O=C/C(Br)=C\c1ccccc1
inactive: dose: 25.0 mg/kg/injection, schedule: Q01DX009 (ip), vehicle: Klucel (hydroxypropylcellulose) (HPC) 95 % of control | dose: 25.0 mg/kg/injection, schedule: Q04DX003 (ip), vehicle: Klucel (hydroxypropylcellulose) (HPC) 100 % of control | dose: 50.0 mg/kg/injection, schedule: Q01DX009 (ip), vehicle: Klucel (hydroxypropylcellulose) (HPC) 90 % of control | dose: 50.0 mg/kg/injection, schedule: Q04DX003 (ip), vehicle: Klucel (hydroxypropylcellulose) (HPC) 100 % of control | dose: 100.0 mg/kg/injection, schedule: Q01DX009 (ip), vehicle: Klucel (hydroxypropylcellulose) (HPC) 105 % of control | [7] 93 % of control and 105 % of control

S=P(NC1CCCCC1)(N1CC1)N1CC1
inactive: dose: 5.0 mg/kg/injection, schedule: Q01DX Z (ip), vehicle: carboxymethylcellulose (CMC) 122 % of control | dose: 20.0 mg/kg/injection, schedule: Q01DX Z (ip), vehicle: carboxymethylcellulose (CMC) 101 % of control

O=[N+]([O-])c1ccc(/C=N/Nc2nnc(N/N=C/c3ccc([N+](=O)[O-])cc3)c3ccccc23)cc1
inactive: dose: 50.0 mg/kg/injection, schedule: Q01DX001 (ip), vehicle: carboxymethylcellulose (CMC) 93 % of control | dose: 100.0 mg/kg/injection, schedule: Q01DX001 (ip), vehicle: carboxymethylcellulose (CMC) 101 % of control | [8] 93 % of control | [9] 98 % of control

CC1c2c(c(-c3ccccc3)c3ccccc3c2-c2ccccc2)S1(=O)=O (stereo not given)
inactive: dose: 25.0 mg/kg/injection, schedule: Q04DX002 (ip), vehicle: Klucel (hydroxypropylcellulose) (HPC) 99 % of control | dose: 50.0 mg/kg/injection, schedule: Q04DX002 (ip), vehicle: Klucel (hydroxypropylcellulose) (HPC) 96 % of control | [10] 94 % of control and 99 % of control and 111 % of control | [11] 94 % of control and 99 % of control and 114 % of control | [12] 99 % of control and 111 % of control

CC1(N)COP(=O)(Nc2ccccc2)OC1 (stereo not given)
inactive: dose: 44.4 mg/kg/injection, schedule: Q01DX001 (ip), vehicle: carboxymethylcellulose (CMC) 101 % of control | dose: 66.7 mg/kg/injection, schedule: Q01DX001 (ip), vehicle: carboxymethylcellulose (CMC) 101 % of control | dose: 150.0 mg/kg/injection, schedule: Q01DX001 (ip), vehicle: carboxymethylcellulose (CMC) 107 % of control | [8] 92 % of control | [9] 103 % of control

Cc1cc(C)c([As](=O)(O)O)c([N+](=O)[O-])c1
inactive: [13] 90 % of control | [14] 101 % of control | [15] 104 % of control

CNc1c(Cl)c(Cl)cc(Cl)c1Cl
inactive: [2] 104 % of control | [3] 95 % of control | [4] 110 % of control | [5] 114 % of control | [6] 93 % of control

O=C(COc1ccc(Cl)cc1)Nc1ccccc1
inactive: [10] 109 % of control | [11] 98 % of control | [12] 103 % of control

O=CNc1ccc2c(c1)Cc1cc(Cl)ccc1-2
inactive: dose: 30.0 mg/kg/injection, schedule: Q01DX015 (ip), vehicle: carboxymethylcellulose (CMC) 97 % of control | dose: 60.0 mg/kg/injection, schedule: Q01DX015 (ip), vehicle: carboxymethylcellulose (CMC) 106 % of control | dose: 120.0 mg/kg/injection, schedule: Q01DX015 (ip), vehicle: carboxymethylcellulose (CMC) 97 % of control

O=C(NN=c1c2ccccc2sc2ccccc12)c1cccc2ccccc12
inactive: [13] 103 % of control | [14] 105 % of control | [15] 97 % of control

CC(=O)OC(C(N)=O)C(OC(C)=O)C(=O)O (stereo not given)
inactive: dose: 100.0 mg/kg/injection, schedule: Q04DX003 (ip), vehicle: water 96 % of control | dose: 200.0 mg/kg/injection, schedule: Q04DX003 (ip), vehicle: water 100 % of control | dose: 400.0 mg/kg/injection, schedule: Q04DX003 (ip), vehicle: water 97 % of control

C[N+](C)(C)c1cc2c(nn1)Nc1ccccc1S2
inactive: dose: 50.0 mg/kg/injection, schedule: Q01DX001 (ip), vehicle: saline 123 % of control | [13] 116 % of control

CC1C(c2ccccc2)OCN1CN1C(=O)C=CC1=O (stereo not given) (tested in a mixture with another compound)
inactive: [3] 90 % of control

COc1cc(NC(=O)Nc2cc(OC)c(OC)c(OC)c2)cc(OC)c1OC
inactive: [7] 96 % of control | [3] 93 % of control | dose: 200.0 mg/kg/injection, schedule: Q04DX003 (ip), vehicle: Klucel (hydroxypropylcellulose) (HPC) 98 % of control | dose: 400.0 mg/kg/injection, schedule: Q04DX003 (ip), vehicle: Klucel (hydroxypropylcellulose) (HPC) 91 % of control

NC(CS(=O)c1ccc(Cl)cc1)C(=O)O (stereo not given)
inactive: [3] 97 % of control | [5] 92 % of control

Nc1c(I)cc(C(=O)O)c(O)c1I
inactive: [1] 97 % of control | [2] 94 % of control | [3] 94 % of control | [4] 94 % of control | [5] 98 % of control

COc1cc2c(cc1NC1=NCCO1)OCO2
inactive: dose: 75.0 mg/kg/injection, schedule: Q04DX003 (ip), vehicle: Klucel (hydroxypropylcellulose) (HPC) 101 % of control | dose: 150.0 mg/kg/injection, schedule: Q04DX003 (ip), vehicle: Klucel (hydroxypropylcellulose) (HPC) 93 % of control | dose: 300.0 mg/kg/injection, schedule: Q04DX003 (ip), vehicle: Klucel (hydroxypropylcellulose) (HPC) 103 % of control

Cc1cc(=O)cc(C(=O)O)o1
inactive: dose: 75.0 mg/kg/injection, schedule: Q01DX001 (ip), vehicle: saline 107 % of control | dose: 150.0 mg/kg/injection, schedule: Q01DX001 (ip), vehicle: saline 107 % of control | dose: 300.0 mg/kg/injection, schedule: Q01DX001 (ip), vehicle: saline 109 % of control

O=c1c(Br)c(Cl)nc2ccccn12
inactive: [13] 95 % of control | [14] 96 % of control | [15] 93 % of control

Cn1c(=O)c2c(ncn2CC[n+]2cccc(C(N)=O)c2)n(C)c1=O
inactive: dose: 100.0 mg/kg/injection, schedule: Q04DX003 (ip), vehicle: saline 101 % of control | dose: 200.0 mg/kg/injection, schedule: Q04DX003 (ip), vehicle: saline 97 % of control
